# Experimental data published in article PMC12016938, “A small molecule PKCε inhibitor reduces hyperalgesia induced by paclitaxel or opioid withdrawal” (JCI Insight, 2025).
# Where “and” joins values, the source holds several entries; their conditions need not be identical. Equal entries are not always repeated.
# Tested on: self-administration (addictive potential)
# Experiment: I.v. self-administration of CP612, between-session progressive ratio and demand curve
# Protocol: We tested the addictive potential of CP612 by examining the extent to which rats are willing to work to obtain CP612. Rats were initially trained to self-administer either saline, morphine (500 μg/kg/i.v. infusion), or 1 of 3 different doses of CP612 (75, 150, or 300 μg/kg/i.v. infusion) for 4 days at fixed ratio 1 (FR1, where 1 nose poke delivers 1 infusion).
# During the second phase, the ratio to obtain an infusion increased geometrically every other day (FR1, FR3, FR6, FR12, FR24, FR48, and FR96).
# Data (number of self-infusions) were also fitted in an economic-demand curve, which provides an estimate of the motivation to obtain drugs and their addictive potential ([20]). We measured elasticity (α), which is the relative change in consumption as a function of price (i.e., ratio of nose pokes required to obtain an infusion). Behavior is considered “inelastic” when consumption is insensitive to price and “elastic” when consumption is sensitive to price. We also measured Pmax, which is the price at which intake switches from inelastic to elastic. […] (Figure 8B).
# Rats not immediately anesthetized were eliminated from the study.
# Following this initial acquisition phase at FR1, the ratio to obtain the drug was increased geometrically every other day: FR3 (3 nose pokes are required to obtain 1 infusion of morphine), FR6, FR12, FR24, FR48, and FR96. This allows for analysis of drug consumption as a function of “price” using demand curves for behavioral economics, which can estimate the motivation to obtain drugs and their “addictive potential” ([20]). For this, data from each rat were fitted to the equation log Q = log Q0 + k (e ^–α(Q0 ^C) – 1), where Q represents consumption (number of self-infusions), and Q0 represents the level of consumption at the lowest price. C represents price for the drug (i.e., the ratio), and k is set to a constant accounting for the estimated range of consumption in logarithmic units (k = 4 in these studies). The symbol α is the relative change in consumption across changes in price (ratio). Behavior is considered “inelastic” when consumption is insensitive to price (i.e., the curve is flat, and consumption is maintained despite increases in price), and it switches to “elastic” when consumption is sensitive to price (i.e., when the curve is steep and consumption declines with increases in price). […] We also compared groups for their average intake in the consumption-price curves by measuring α (elasticity) and Pmax.
smiles,measurement,setting,value
N[C@H](CNC(=O)C1(c2ccc(Cl)cc2)CCCC1)c1ccc(C(=O)Nc2ccncc2)cc1 [CP612],AVG Latency (FR1_D1 to D4),"CP612-High, individual rat",0.277 and 0.6 and 2.3 and 1.8 and 0.8 and 0.9 and 1.0
same,AVG Latency (FR1_Last 2 FR1 days),"CP612-High, individual rat",0.051 and 0.179 and 0.9 and 1.8 and 0.219 and 0.171
same,AVG Latency (FR1_Last 4 FR1 days),"CP612-High, individual rat",0.076 and 0.283 and 1.5 and 1.8 and 0.8 and 0.9 and 0.53
same,AVG Latency (FR3),"CP612-High, individual rat",1.2 and 0.116 and 2.8 and 0.5 and 0.236 and 1.4 and 0.326
same,AVG Latency (FR6),"CP612-High, individual rat",0.64 and 0.4 and 0.643 and 1.9 and 0.8 and 2.5 and 0.6
same,AVG Latency (FR12),"CP612-High, individual rat",14.4 and 2.6 and 0.5 and 4.0 and 0.6 and 2.1
same,AVG Latency (FR24),"CP612-High, individual rat",1.9 and 0.9 and 0.3 and 0.6 and 2.3 and 1.3
same,AVG Latency (FR48),"CP612-High, individual rat",14.3 and 0.9 and 1.1 and 1.9 and 18.8 and 1.2
same,AVG Latency (FR96),"CP612-High, individual rat",13.6 and 1.5 and 0.9 and 12.9 and 2.4 and 0.8
same,D1 Latency (FR1),"CP612-High, individual rat",0.857 and 1.7 and 5.4 and 2.9 and 0.6 and 0.743
same,D1 Latency (FR3),"CP612-High, individual rat",2.0 and 0.108 and 0.043 and 0.6 and 0.3 and 0.19 and 0.232
same,D1 Latency (FR6),"CP612-High, individual rat",0.65 and 0.1 and 0.9 and 0.7 and 0.8 and 3.8 and 0.275
same,D1 Latency (FR12),"CP612-High, individual rat",27.0 and 1.2 and 0.527 and 5.7 and 0.283 and 3.2 and 2.2
same,D1 Latency (FR24),"CP612-High, individual rat",1.3 and 0.7 and 0.338 and 0.9 and 1.7 and 1.4
same,D1 Latency (FR48),"CP612-High, individual rat",16.8 and 0.4 and 0.255 and 0.142 and 1.1 and 36.4 and 0.743
same,D1 Latency (FR96),"CP612-High, individual rat",4.4 and 1.8 and 0.643 and 3.1 and 3.3 and 0.647 and 0.7
same,D2 Latency (FR1),"CP612-High, individual rat",0.077 and 0.4 and 2.0 and 0.6 and 2.2 and 0.9
same,D2 Latency (FR3),"CP612-High, individual rat",0.5 and 0.125 and 5.6 and 0.4 and 0.17 and 2.6
same,D2 Latency (FR6),"CP612-High, individual rat",0.6 and 0.7 and 0.4 and 3.1 and 0.8 and 1.2 and 0.9
same,D2 Latency (FR12),"CP612-High, individual rat",1.8 and 4.1 and 0.5 and 2.3 and 0.9 and 1.0 and 2.9
same,D2 Latency (FR24),"CP612-High, individual rat",2.5 and 1.2 and 0.257 and 0.283 and 0.355 and 2.9
same,D2 Latency (FR48),"CP612-High, individual rat",11.8 and 1.4 and 1.9 and 3.7 and 1.1 and 1.2 and 1.7
same,D2 Latency (FR96),"CP612-High, individual rat",22.7 and 1.2 and 1.1 and 1.6 and 0.9 and 2.4
same,D3 Latency (FR1),"CP612-High, individual rat",0.125 and 0.22 and 1.4 and 2.0 and 0.063 and 1.3 and 0.185
same,D4 Latency (FR1),"CP612-High, individual rat",0.05 and 0.138 and 0.457 and 1.7 and 0.375 and 0.547 and 0.158
same,last Latency (FR1),"CP612-High, individual rat",0.052 and 0.138 and 0.457 and 1.7 and 0.375 and 0.547 and 0.158
same,last-1 Latency (FR1),"CP612-High, individual rat",0.05 and 0.22 and 1.4 and 2.0 and 0.063 and 1.3 and 0.185
same,last-2 Latency (FR1),"CP612-High, individual rat",0.125 and 0.4 and 2.0 and 0.6 and 2.2 and 0.9
same,last-3 Latency (FR1),"CP612-High, individual rat",0.077 and 0.4 and 2.0 and 2.9 and 0.6 and 0.9
same,AVG Latency (FR1_D1 to D4),"CP612-Low, individual rats",4.9 and 0.7 and 2.4 and 1.7 and 1.1
same,AVG Latency (FR1_Last 2 FR1 days),"CP612-Low, individual rats",0.358 and 0.6 and 0.284 and 0.9 and 0.159 and 1.0 and 0.2 and 1.2
same,AVG Latency (FR1_Last 4 FR1 days),"CP612-Low, individual rats",1.9 and 0.8 and 0.222 and 0.443 and 1.2 and 0.5 and 0.6
same,AVG Latency (FR3),"CP612-Low, individual rats",0.8 and 1.6 and 4.5 and 0.452 and 0.377 and 4.0 and 0.095 and 0.182
same,AVG Latency (FR6),"CP612-Low, individual rats",1.5 and 1.4 and 2.2 and 0.323 and 0.9 and 0.163 and 0.233
same,AVG Latency (FR12),"CP612-Low, individual rats",1.6 and 0.566 and 0.8 and 0.4 and 2.4 and 1.9 and 1.0
same,AVG Latency (FR24),"CP612-Low, individual rats",3.5 and 0.6 and 1.0 and 0.8 and 0.426 and 5.1 and 1.2 and 0.7
same,AVG Latency (FR48),"CP612-Low, individual rats",0.7 and 2.3 and 2.2 and 0.372 and 0.844 and 2.6 and 0.335 and 1.6
same,AVG Latency (FR96),"CP612-Low, individual rats",1.1 and 0.176 and 4.5 and 0.551 and 1.2 and 0.0585 and 2.6 and 0.259
same,D1 Latency (FR1),"CP612-Low, individual rats",12.2 and 0.368 and 2.4 and 7.3 and 1.0 and 3.8 and 1.9 and 0.7
same,D1 Latency (FR3),"CP612-Low, individual rats",0.425 and 0.5 and 1.0 and 0.458 and 0.7 and 4.6 and 0.155 and 0.173
same,D1 Latency (FR6),"CP612-Low, individual rats",1.3 and 2.2 and 0.473 and 0.533 and 0.9 and 0.183 and 0.32
same,D1 Latency (FR12),"CP612-Low, individual rats",0.9 and 2.3 and 0.7 and 1.3 and 0.66 and 1.0 and 0.6
same,D1 Latency (FR24),"CP612-Low, individual rats",6.2 and 0.9 and 1.5 and 0.7 and 8.8 and 2.1 and 0.19
same,D1 Latency (FR48),"CP612-Low, individual rats",1.1 and 1.6 and 3.8 and 0.332 and 0.655 and 0.6 and 0.368 and 0.073
same,D1 Latency (FR96),"CP612-Low, individual rats",0.8 and 0.108 and 8.1 and 0.57 and 0.062 and 1.6 and 0.143
same,D2 Latency (FR1),"CP612-Low, individual rats",4.7 and 1.8 and 0.14 and 0.425 and 1.0 and 0.13 and 1.5 and 0.027
same,D2 Latency (FR3),"CP612-Low, individual rats",1.1 and 2.8 and 7.9 and 0.445 and 0.067 and 3.5 and 0.035 and 0.2
same,D2 Latency (FR6),"CP612-Low, individual rats",1.7 and 0.562 and 4.0 and 0.658 and 0.112 and 0.9 and 0.143 and 0.147
same,D2 Latency (FR12),"CP612-Low, individual rats",2.2 and 0.8 and 0.4 and 0.355 and 0.1 and 3.4 and 2.9 and 1.5
same,D2 Latency (FR24),"CP612-Low, individual rats",0.76 and 0.282 and 0.4 and 0.9 and 0.148 and 1.5 and 0.188 and 1.2
same,D2 Latency (FR48),"CP612-Low, individual rats",0.337 and 3.0 and 0.6 and 0.4 and 1.0 and 4.6 and 0.3 and 3.2
same,D2 Latency (FR96),"CP612-Low, individual rats",1.5 and 0.245 and 0.8 and 0.533 and 1.6 and 0.055 and 3.5 and 0.375
same,D3 Latency (FR1),"CP612-Low, individual rats",2.1 and 0.145 and 0.175 and 0.9 and 0.5 and 2.5 and 0.8 and 0.017
same,D4 Latency (FR1),"CP612-Low, individual rats",0.433 and 0.6 and 0.143 and 1.0 and 0.3 and 0.258 and 0.24 and 2.0
same,last Latency (FR1),"CP612-Low, individual rats",0.283 and 0.653 and 0.332 and 0.9 and 0.03 and 1.7 and 0.163 and 0.342
same,last-1 Latency (FR1),"CP612-Low, individual rats",0.433 and 0.6 and 0.237 and 1.0 and 0.3 and 0.258 and 0.24 and 2.0
same,last-2 Latency (FR1),"CP612-Low, individual rats",2.1 and 0.145 and 0.143 and 0.9 and 0.5 and 2.5 and 0.8 and 0.017
same,last-3 Latency (FR1),"CP612-Low, individual rats",4.7 and 1.8 and 0.175 and 0.425 and 1.0 and 0.13 and 0.8 and 0.017
same,AVG Latency (FR1_D1 to D4),"CP612-Mid, individual rat",1.3 and 0.461 and 0.5 and 1.6
same,AVG Latency (FR1_Last 2 FR1 days),"CP612-Mid, individual rat",0.475 and 0.9 and 0.261 and 0.6 and 3.4
same,AVG Latency (FR1_Last 4 FR1 days),"CP612-Mid, individual rat",0.356 and 0.538 and 0.317 and 0.363 and 1.9
same,AVG Latency (FR3),"CP612-Mid, individual rat",0.8 and 0.466 and 1.2 and 0.0825
same,AVG Latency (FR6),"CP612-Mid, individual rat",0.633 and 1.0 and 0.8 and 3.0 and 4.9
